Data: ChEMBL document CHEMBL1147182, “Clubbed thiazoles by MAOS: a novel approach to cyclin-dependent kinase 5/p25 inhibitors as a potential treatment for Alzheimer's disease” (Bioorg Med Chem, 2007)

Experiments:
[1] = target: Cyclin-dependent kinase 5/CDK5 activator 1 (Homo sapiens, UniProt Q00535); assay: Inhibition of human cdk5/p25 by SPA; format: protein-complex assay
[2] = Cytotoxicity against VeroC1008 cells at 6.25 to 50 ug/ml by neutral red uptake assay; format: cell-based; details: chlorocebus sabaeus, vero
[3] = species: Homo sapiens; assay: Selectivity for human cdk5/[…] over human cdk2/cyclin E
[4] = target: Cyclin-dependent kinase 2/cyclin E (Homo sapiens, UniProt P24941); assay: Inhibition of human cdk2/cyclin E by SPA; format: protein-complex assay

Chain of Cyclin-dependent kinase 5/CDK5 activator 1 (Q00535 whole entry): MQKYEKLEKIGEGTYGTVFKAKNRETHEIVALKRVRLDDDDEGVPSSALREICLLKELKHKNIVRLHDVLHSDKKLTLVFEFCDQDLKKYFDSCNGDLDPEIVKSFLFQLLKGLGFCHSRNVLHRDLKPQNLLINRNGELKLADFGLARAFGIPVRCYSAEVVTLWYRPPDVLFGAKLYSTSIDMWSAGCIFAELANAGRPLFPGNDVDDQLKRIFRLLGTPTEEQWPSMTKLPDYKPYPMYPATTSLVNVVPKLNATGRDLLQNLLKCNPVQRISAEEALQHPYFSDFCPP
Chain of Cyclin-dependent kinase 5/CDK5 activator 1 (Q15078 whole entry, further chain): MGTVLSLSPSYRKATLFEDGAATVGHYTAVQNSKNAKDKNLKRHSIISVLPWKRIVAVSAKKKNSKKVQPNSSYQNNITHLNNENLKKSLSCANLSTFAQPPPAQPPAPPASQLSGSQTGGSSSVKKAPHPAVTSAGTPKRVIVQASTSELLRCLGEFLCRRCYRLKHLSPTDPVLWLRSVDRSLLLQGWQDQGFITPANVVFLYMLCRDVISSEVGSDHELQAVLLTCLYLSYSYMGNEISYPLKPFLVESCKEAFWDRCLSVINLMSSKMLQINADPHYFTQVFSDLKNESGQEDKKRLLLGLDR

| Structure (SMILES) | IC50 [1] [nM] | Ratio IC50 [3] | IC50 [4] [nM] | Activity [2] |
| --- | --- | --- | --- | --- |
| N#CCSc1nnc(Cc2csc(NC(=O)CCl)n2)n1NC(=O)c1ccc(Cl)cc1 | 562 | – | – | Non-toxic |
| CC(=O)Nc1nc(Cc2nnc(SCC(=O)NNC(=O)CCl)n2NC(=O)c2ccccc2)cs1 | 643 | – | – | Non-toxic |
| COC(=O)CSc1nnc(Cc2csc(NC(=O)CCl)n2)n1NC(C)=O | 695 | – | – | Non-toxic |
| CC(=O)Nc1nc(Cc2nnc(SCSc3nnc(Cc4csc(NC(C)=O)n4)n3NC(=O)c3ccccc3)n2NC(=O)c2ccccc2)cs1 | 647 | – | – | Non-toxic |
| CC(=O)NNC(=O)CSc1nnc(Cc2csc(NC(=O)c3ccccc3)n2)n1NC(=O)c1ccccc1 | 564 | – | – | Non-toxic |
| O=C(CCl)NNC(=O)CSc1nnc(Cc2csc(NC(=O)CCl)n2)n1NC(=O)c1ccccc1 | 530 | – | – | Non-toxic |
| O=C(CCl)NNC(=O)CSc1nnc(Cc2csc(NC(=O)c3ccccc3)n2)n1NC(=O)c1ccccc1 | 542 | – | – | Non-toxic |
| CC(=O)Nc1nc(Cc2nnc(SCc3nnc(S)n3N)n2NC(C)=O)cs1 | 5250 | – | – | Non-toxic |
| CC(=O)Nn1c(Cc2csc(NC(=O)CCl)n2)nnc1SCSc1nnc(Cc2csc(NC(=O)CCl)n2)n1NC(C)=O | 847 | – | – | Non-toxic |
| O=C(CSc1nnc(Cc2csc(NC(=O)CCl)n2)n1NC(=O)c1ccc(Cl)cc1)NNC(=O)c1ccccc1 | 640 | – | – | Non-toxic |
| COC(=O)CSc1nnc(Cc2csc(NC(=O)CCl)n2)n1NC(=O)c1ccccc1 | 674 | – | – | Non-toxic |
| O=C(CSc1nnc(Cc2csc(NC(=O)c3ccccc3)n2)n1NC(=O)c1ccccc1)N/N=C/c1ccccc1 | 496 | – | – | Non-toxic |
| O=C(O)CCNc1nc(Cc2n[nH]c(=S)n2NC(=O)c2ccc(Cl)cc2)cs1 | 462 | – | – | Non-toxic |
| CC(=O)Nn1c(Cc2csc(NCCC(=O)O)n2)nnc1SCC(=O)N/N=C/c1ccccc1 | 635 | – | – | Non-toxic |
| CC(=O)Nn1c(Cc2csc(NC(=O)CCl)n2)nnc1SCC(=O)NNC(=O)CCl | 462 | – | – | Non-toxic |
| O=C(CSc1nnc(Cc2csc(NC(=O)CCl)n2)n1NC(=O)c1ccccc1)NNC(=O)c1ccccc1 | 467 | – | – | Non-toxic |
| CC(=O)Nc1nc(Cc2nnc(SCC(=O)N/N=C/c3ccccc3)n2NC(=O)c2ccccc2)cs1 | 485 | – | – | Non-toxic |
| O=C(CSc1nnc(Cc2csc(NC(=O)CCl)n2)n1NC(=O)c1ccccc1)N/N=C/c1ccccc1 | 467 | – | – | Non-toxic |
| CC(=O)Nn1c(Cc2csc(NC(=O)c3ccccc3)n2)nnc1SCSc1nnc(Cc2csc(NC(=O)c3ccccc3)n2)n1NC(C)=O | 764 | – | – | Non-toxic |
| CC(=O)Nc1nc(Cc2nnc(SCC(=O)N/N=C/c3ccccc3)n2NC(C)=O)cs1 | 463 | – | – | Non-toxic |
| CC(=O)Nn1c(Cc2csc(NC(=O)c3ccccc3)n2)nnc1SCC(=O)N/N=C/c1ccccc1 | 467 | – | – | Non-toxic |
| CC(=O)NNC(=O)CSc1nnc(Cc2csc(NCCC(=O)O)n2)n1NC(=O)c1ccccc1 | 472 | – | – | Non-toxic |
| Nn1c(CSc2nnc(Cc3csc(NC(=O)c4ccccc4)n3)n2NC(=O)c2ccc(Cl)cc2)n[nH]c1=S | 3180 | – | – | Non-toxic |
| Nn1c(CSc2nnc(Cc3csc(NC(=O)CCl)n3)n2NC(=O)c2ccc(Cl)cc2)n[nH]c1=S | 3260 | – | – | Non-toxic |
| O=C(O)CCNc1nc(Cc2nnc(SCC(=O)NNC(=O)CCl)n2NC(=O)c2ccccc2)cs1 | 462 | – | – | Non-toxic |
| O=C(CSc1nnc(Cc2csc(NC(=O)c3ccccc3)n2)n1NC(=O)c1ccccc1)NNC(=O)c1ccccc1 | 463 | – | – | Non-toxic |

The next compounds have a lower IC50 [1] than those just listed; values first:

| IC50 [1] [nM] | Ratio IC50 [3] | IC50 [4] [nM] | Structure (SMILES) | Activity [2] |
| --- | --- | --- | --- | --- |
| 440 | – | – | COC(=O)CSc1nnc(Cc2csc(NC(=O)CCl)n2)n1NC(=O)c1ccc(Cl)cc1 | Non-toxic |
| 436 | – | – | CC(=O)Nn1c(Cc2csc(NCCC(=O)O)n2)n[nH]c1=S | Non-toxic |
| 421 | – | – | CC(=O)Nc1nc(Cc2nnc(SCC(=O)NNC(=O)c3ccccc3)n2NC(=O)c2ccccc2)cs1 | Non-toxic |
| 415 | – | – | CC(=O)Nn1c(Cc2csc(NC(=O)CCl)n2)nnc1SCC#N | Non-toxic |
| 395 | – | – | CC(=O)Nc1nc(Cc2nnc(SCC#N)n2NC(=O)c2ccccc2)cs1 | Non-toxic |
| 390 | – | – | Nn1c(S)nnc1Cc1csc(NC(=O)CCl)n1 | Non-toxic |
| 382 | – | – | CC(=O)Nc1nc(Cc2nnc(SCSc3nnc(Cc4csc(NC(C)=O)n4)n3NC(=O)c3ccc(Cl)cc3)n2NC(=O)c2ccc(Cl)cc2)cs1 | Non-toxic |
| 365 | – | – | CC(=O)Nn1c(Cc2csc(NC(=O)CCl)n2)nnc1SCC(=O)NNC(=O)c1ccccc1 | Non-toxic |
| 352 | – | – | CC(=O)NNC(=O)CSc1nnc(Cc2csc(NCCC(=O)O)n2)n1NC(=O)c1ccc(Cl)cc1 | Non-toxic |
| 340 | – | – | CC(=O)NNC(=O)CSc1nnc(Cc2csc(NC(=O)c3ccccc3)n2)n1NC(=O)c1ccc(Cl)cc1 | Non-toxic |
| 268 | – | – | NNC(=O)CSc1nnc(Cc2csc(NC(=O)c3ccccc3)n2)n1NC(=O)c1ccccc1 | Non-toxic |
| 264 | – | – | CC(=O)Nn1c(Cc2csc(NCCC(=O)O)n2)nnc1SCC(=O)NNC(=O)CCl | Non-toxic |
| 241 | – | – | CC(=O)Nc1nc(Cc2nnc(SCC(=O)NN)n2NC(C)=O)cs1 | Non-toxic |
| 201 | – | – | CC(=O)Nn1c(Cc2csc(NC(=O)CCl)n2)nnc1SCC(=O)NN | Non-toxic |
| 180 | – | – | O=C(O)CCNc1nc(Cc2nnc(SCC(=O)NNC(=O)CCl)n2NC(=O)c2ccc(Cl)cc2)cs1 | Non-toxic |
| 168 | – | – | O=C(O)CCNc1nc(Cc2nnc(SCSc3nnc(Cc4csc(NCCC(=O)O)n4)n3NC(=O)c3ccc(Cl)cc3)n2NC(=O)c2ccc(Cl)cc2)cs1 | Non-toxic |
| 72 | 8.6 | 624 | CC(=O)Nc1nc(Cc2nnc(SCC(=O)NN)n2NC(=O)c2ccc(Cl)cc2)cs1 | Non-toxic |
| 64 | 99 | 6340 | NNC(=O)CSc1nnc(Cc2csc(NCCC(=O)O)n2)n1NC(=O)c1ccc(Cl)cc1 | Non-toxic |
| 64 | 21 | 1340 | N#CCSc1nnc(Cc2csc(NC(=O)c3ccccc3)n2)n1NC(=O)c1ccc(Cl)cc1 | Non-toxic |
| 62 | 18.3 | 1140 | CC(=O)Nc1nc(Cc2nnc(SCC#N)n2NC(=O)c2ccc(Cl)cc2)cs1 | Non-toxic |
| 48 | 1 | 50 | CC(=O)Nc1nc(Cc2nnc(S)n2N)cs1 | Non-toxic |
| 44 | 20 | 890 | NNC(=O)CSc1nnc(Cc2csc(NC(=O)CCl)n2)n1NC(=O)c1ccc(Cl)cc1 | Non-toxic |
| 42 | 1.2 | 51 | O=C(CSc1nnc(Cc2csc(NC(=O)CCl)n2)n1NC(=O)c1ccc(Cl)cc1)N/N=C/c1ccccc1 | Non-toxic |
| 34 | 13.8 | 468 | NNC(=O)CSc1nnc(Cc2csc(NC(=O)c3ccccc3)n2)n1NC(=O)c1ccc(Cl)cc1 | Non-toxic |
| 30 | 17 | 512 | CC(=O)Nc1nc(Cc2nnc(SCC(=O)N/N=C/c3ccccc3)n2NC(=O)c2ccc(Cl)cc2)cs1 | Non-toxic |
